The text below walks through data of patent publication US20240002380A1, “REV-ERB AGONISTS” (Saint Louis University, priority 2020, published 2024).

In one data set the target is REV-ERBα (Homo sapiens (Human), UniProt P20393). Nature of the data set: FRET assay for REV-ERB ligands (REV-ERBα LBD / NCoR ID2 peptide interaction). To be noted: TR-FRET, His-tagged REV-ERBα LBD, fluorescein NCoR ID2 peptide; read-out: RevErbα Inhibition IC50. It counts as biochemical. On the procedure:
(§1) Example A: FRET Assay for REV-ERB Ligands
(§2) The capacity for compounds to function as ligands for either REV-ERBα or REV-ERBβ was assessed using a fluorescent resonance energy transfer assay that detects the interaction between these receptors and the Nuclear Receptor Corepressor (NCoR) protein (the ID2 corepressor interaction domain peptides is used). This interaction is known to be ligand dependent and thus this assay that can detect an alteration of the affinity of these two proteins is able to detect ligands. The His-tagged ligand binding domain (LBD) of either REV-ERBα or REV-ERBβ and fluorescein labeled NCoR ID2 peptide (Life Technologies #PV4624) is used in these assays. The His-tagged LBDs were expressed in E. coli (amino acids 281-614 REV-ERBα and 381-579 REV-ERBβ) and labeled with a Terbium (Tb) labeled anti-His antibody (Life Technologies #PV5895). The assay buffer was PBS (phosphate buffered saline) with 5 mM DTT (dithiothreitol). The final concentration of various reagents in the assay are: REV-ERB LBD (either isoform) [5 nM], Fluorescein labeled NCoR ID2 peptide [250 nM], Tb labeled anti-his antibody [10 nM], dimethylsulfoxide [1%] and test compound [varying concentrations]. The assay was performed in Corning NBS black 384-well plates in a total volume of 20 μl. The assay plate was incubated for 1 hour at room temperature protected from light and then TR-FRET was assessed on a Biotek plate reader with the following excitation/emission pairs (340 nm/495 nm and 340 nm/520 nm. The 520 nm/495 nm emission signal ratio was used as an indicator of the degree of interaction between the LBD and NCoR peptide and EC50's were calculated using GraphPad Prizm software.
On the technique in general: In TR-FRET formats the signal depends on donor and acceptor labels being close together.

Another data set addresses REV-ERBβ (Homo sapiens (Human), UniProt Q14995). Description: FRET assay for REV-ERB ligands (REV-ERBβ LBD / NCoR ID2 peptide interaction). To be noted: TR-FRET, His-tagged REV-ERBβ LBD, fluorescein NCoR ID2 peptide; read-out: RevErbβ Inhibition IC50. Type of data set: biochemical. The procedure:
as §1, §2

The nature of data set [1]: Plasma pharmacokinetics after intraperitoneal injection in mice. To be noted: mouse, 5 mg/kg IP; for Vd/F: read-out: Vz/F. It counts as in vivo. The procedure:
Example B: Pharmacokinetics of Selected Compounds
Mice were injected intraperitoneally with (5 mg/kg) of the compound of Example 71 or Example 78 and plasma samples were taken at intervals of […], 0.25 hr, 0.5 hr. 1.0 hr, 3.0 hr, and 6.0 hr post-administration in order to analyze the pharmacokinetic profile of these compounds. The mean plasma content for male and for female mice at these time points post-injection are shown for Example 71 in FIG. 1A and Table 3, and for Example 78, in FIG. 1B and Table 4.

Data set [2] relates to senescence accelerated mouse P8 (SAMP8) mouse model. As to conditions: SAMP8 mice, AD-like pathology; cited from earlier work.

Where two headings read alike, the source gives them in different places.

Sequence of REV-ERBβ (Q14995 381-579): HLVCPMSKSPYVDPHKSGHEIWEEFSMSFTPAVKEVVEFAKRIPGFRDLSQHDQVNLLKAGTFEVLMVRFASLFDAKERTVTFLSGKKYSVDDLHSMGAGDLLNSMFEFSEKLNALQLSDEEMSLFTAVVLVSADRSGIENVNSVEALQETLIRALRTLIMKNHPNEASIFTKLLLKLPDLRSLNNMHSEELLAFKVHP
Sequence of REV-ERBα (P20393 281-614): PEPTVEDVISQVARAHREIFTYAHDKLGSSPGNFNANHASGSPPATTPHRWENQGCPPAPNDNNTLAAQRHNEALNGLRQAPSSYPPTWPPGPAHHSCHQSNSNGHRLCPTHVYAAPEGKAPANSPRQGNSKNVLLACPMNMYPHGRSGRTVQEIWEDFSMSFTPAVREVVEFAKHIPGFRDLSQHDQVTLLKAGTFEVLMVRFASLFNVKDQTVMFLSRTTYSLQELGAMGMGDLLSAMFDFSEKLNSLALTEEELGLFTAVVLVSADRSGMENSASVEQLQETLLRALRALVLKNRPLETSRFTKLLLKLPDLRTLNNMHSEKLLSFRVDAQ

With `Cn1cnc2ccc(Oc3ccccc3-c3ccccc3)nc21` [Example 3, 5-([1,1′-biphenyl]-2-yloxy)-3-methyl-3H-imidazo[4,5-b]pyridine], the IC50 at REV-ERBα is 250 to 1000 nM; at REV-ERBβ it was ≤ 250 nM.
Take `Cc1cccc(-c2ccccc2Oc2ccc3ncn(C)c3n2)c1` [Example 4, 3-methyl-5-(3′-methylbiphenyl-2-yloxy)-3H-imidazo[4,5-b]pyridine]: the IC50 at REV-ERBβ is ≤ 250 nM.
Turning to `Cn1cnc2ccc(Oc3ccccc3-c3cccc(F)c3)nc21` [Example 5, 5-(3′-fluorobiphenyl-2-yloxy)-3-methyl-3H-imidazo[4,5-b]pyridine], the values for the IC50 on REV-ERBα and at REV-ERBβ were ≤ 250 nM and 250 to 1000 nM, respectively.
In the case of `Cn1cnc2ccc(Oc3ccccc3-c3cccnc3)nc21` [Example 6, 3-methyl-5-(2-(pyridin-3-yl)phenoxy)-3H-imidazo[4,5-b]pyridine], on REV-ERBα, the IC50 is ≤ 250 nM.
For the compound `Cn1ncc2cnc(Oc3ccccc3-c3cccnc3)nc21` [Example 10, 1-methyl-6-(2-(pyridin-3-yl)phenoxy)-1H-pyrazolo[3,4-d]pyrimidine], the 50% inhibitory concentration (IC50) at REV-ERBα and at REV-ERBβ was ≤ 250 nM each time.
Regarding `Cc1cccc(-c2ccccc2Oc2ccc3cnn(C)c3n2)c1` [Example 13, 1-methyl-6-(3′-methylbiphenyl-2-yloxy)-1H-pyrazolo[3,4-b]pyridine], the IC50 at REV-ERBα is > 1000 nM.
Still for that read-out and setting: with `Cn1ncc2ccc(Oc3ccccc3-c3cccc(F)c3)nc21` [Example 14, 6-(3′-fluorobiphenyl-2-yloxy)-1-methyl-1H-pyrazolo[3,4-b]pyridine] the figure was 250 to 1000 nM.
On the same count and under the same terms, the figure for `CNc1cccc(-c2ccccc2Oc2ncc3ccn(C)c3n2)c1` [Example 17, N-methyl-2′-(7-methyl-7H-pyrrolo[2,3-d]pyrimidin-2-yloxy)biphenyl-3-amine] is ≤ 250 nM.
`Cc1nn(C)c2cnc(Oc3ccccc3-c3ccccc3)nc12` [Example 21, 5-([1,1′-biphenyl]-2-yloxy)-1,3-dimethyl-1H-pyrazolo[4,3-d]pyrimidine]: on REV-ERBα, the IC50 is > 1000 nM.
The same measure, in the same setting: the figure for `c1ccc(-c2ccccc2Oc2ncc3cnccc3n2)cc1` [Example 22, 2-(biphenyl-2-yloxy)pyrido[4,3-d]pyrimidine] is ≤ 250 nM.
On to `c1ccc(-c2ccccc2Oc2ccc3cnccc3n2)cc1` [Example 24, 2-(biphenyl-2-yloxy)-1,6-naphthyridine], for which, on REV-ERBα, the IC50 was ≤ 250 nM.
As for `FC(F)(F)c1cc(Oc2ccccc2-c2ccccc2)nc2ccccc12` [Example 34, 2-([1,1′-biphenyl]-2-yloxy)-4-(trifluoromethyl)quinoline], at REV-ERBβ, the IC50 was > 1000 nM.
Regarding `COc1ccc2c(C(F)(F)F)cc(Oc3ccccc3-c3ccccn3)nc2c1` [Example 36, 7-methoxy-2-(2-(pyridin-2-yl)phenoxy)-4-(trifluoromethyl)quinoline], the half-inhibitory concentration (IC50) at REV-ERBα was ≤ 250 nM.
In the case of `FC(F)(F)c1ccccc1Oc1ccc2ccncc2n1` [Example 44, 2-(2-(trifluoromethyl)phenoxy)-1,7-naphthyridine], the half-maximal inhibitory concentration (IC50) at REV-ERBβ is ≤ 250 nM.
Take `c1ccc(-c2ccccc2Oc2ccc3cnccc3n2)nc1` [Example 45, 2-(2-(pyridin-2-yl)phenoxy)-1,6-naphthyridine]: the concentration for half-maximal inhibition (IC50) was > 1000 nM at REV-ERBα and ≤ 250 nM on REV-ERBβ.
On the same counts, the results for `FC(F)(F)c1ccccc1Oc1ccc2cnccc2n1` [Example 46, 2-(2-(trifluoromethyl)phenoxy)-1,6-naphthyridine] are 250 to 1000 nM and > 1000 nM.
Turning to `c1ccc(C2CCCCC2)c(Oc2ccc3ccncc3n2)c1` [Example 48, 2-(2-cyclohexylphenoxy)-1,7-naphthyridine], the half-inhibitory concentration (IC50) at REV-ERBα was ≤ 250 nM.
On the same count and under the same terms, the figure for `c1ccc(C2CCCCC2)c(Oc2ccc3cnccc3n2)c1` [Example 49, 2-(2-cyclohexylphenoxy)-1,6-naphthyridine] is 250 to 1000 nM.
Consider `c1ccc(-c2cccc(Oc3ccc4ccncc4n3)c2)cc1` [Example 51, 2-([1,1′-biphenyl]-3-yloxy)-1,7-naphthyridine], for which, at REV-ERBβ, the IC50 is > 1000 nM.
Regarding `c1ccc2c(Oc3ccc4ccncc4n3)cccc2c1` [Example 54, 2-(naphthalen-1-yloxy)-1,7-naphthyridine], the IC50 at REV-ERBα was ≤ 250 nM.
Take `c1ccc2c(Oc3ccc4cnccc4n3)cccc2c1` [Example 56, 2-(naphthalen-1-yloxy)-1,6-naphthyridine]: the IC50 on REV-ERBα and on REV-ERBβ was > 1000 nM throughout.
`c1cc2ccc(OC3CCCCC3)nc2cn1` [Example 57, 2-(cyclohexyloxy)-1,7-naphthyridine]: the IC50 on REV-ERBα is > 1000 nM.
For `c1ccc(-c2ccccc2Oc2ccc3ccncc3n2)cc1` [Example 59, 2-([1,1′-biphenyl]-2-yloxy)-1,7-naphthyridine], the IC50 at REV-ERBα and at REV-ERBβ was ≤ 250 nM throughout.
Consider `COc1ccc2c(C(F)(F)F)cc(SCC(=O)NCCc3ccc(F)cc3)nc2c1` [Example 62, N-(4-fluorophenethyl)-2-((7-methoxy-4-(trifluoromethyl)quinolin-2-yl)thio)acetamide], for which the IC50 at REV-ERBα was ≤ 250 nM.
With `c1ccc(-c2ccccc2Oc2ccc3ncccc3n2)cc1` [Example 68, 2-([1,1′-biphenyl]-2-yloxy)-1,5-naphthyridine], the concentration for half-maximal inhibition (IC50) on REV-ERBα was 250 to 1000 nM; on REV-ERBβ it was > 1000 nM.
On to `c1ccc2cc(Oc3ccc4ccncc4n3)ccc2c1` [Example 70, 2-(naphthalen-2-yloxy)-1,7-naphthyridine], for which, at REV-ERBα, the IC50 was ≤ 250 nM.
As for `Cc1cc(C)c(Oc2ccc3cnccc3n2)c(-c2ccccc2)c1` [Example 71, 2-((3,5-dimethyl-[1,1′-biphenyl]-2-yl)oxy)-1,6-naphthyridine], in data set [1] (female mice), the AUC(0-inf) turned out to be 172 ng·h/mL, the AUC(0-t) came out at 169 ng·h/mL, the CL/F stood at 484 mL/min/kg and the Cmax was 345 ng/mL. For the same compound, in data set [1] (female mice), the time of peak concentration (Tmax) turned out to be 4.98 min, the half-life is 31.2 min and the Vd/F was found to be 21.9 L/kg. In data set [1] (male mice), this compound came in with an AUC(0-inf) of 225 ng·h/mL, an AUC(0-t) of 222 ng·h/mL, a CL/F of 371 mL/min/kg and a Cmax of 317 ng/mL. For the same compound, in data set [1] (male mice), the Tmax came out at 4.98 min, the half-life was 28.2 min and the Vd/F was 15.2 L/kg.
On to `COc1ccc(-c2ccc(C(F)(F)F)cc2Oc2ccc3cnccc3n2)cc1` [Example 78, 2-((4′-methoxy-4-(trifluoromethyl)-[1,1′-biphenyl]-2-yl)oxy)-1,6-naphthyridine], for which, in data set [1] (Table 4, female mice), the AUC(0-t) stood at 137 ng·h/mL, the Cmax was 269 ng/mL and the time of peak concentration (Tmax) came out at 15 min. Also, in data set [1] (Table 4, male mice), the AUC(0-t) turned out to be 343 ng·h/mL, the CL/F is 238 mL/min/kg, the highest level (Cmax) was 330 ng/mL and the time of peak concentration (Tmax) turned out to be 15 min. Besides, in data set [1] (Table 4, male mice), the half-life was 33 min and the Vd/F amounted to 11.3 L/kg.
For the compound `CCOC(=O)N1CCC(CN(Cc2ccc(Cl)cc2)Cc2ccc([N+](=O)[O-])s2)C1` (stereo not shown) [SR9009], in data set [2], the “reversing the cognitive decline” value is given as “effective in reversing the cognitive decline”.

A word on the IC50: it is the concentration at which inhibition is half-maximal. The AUC(0-inf) is total exposure, with the tail of the curve extrapolated. Higher therefore signals high exposure. In general, AUC(0-t) refers to the area under the concentration-time curve up to a stated or last time point. High values mean high exposure, low ones low exposure. A word on the CL/F: it is clearance divided by bioavailability, as obtained after extravascular dosing. The Cmax is the highest concentration seen after dosing. For orientation: Tmax means the time from dosing to the highest level. A word on the half-life: it is how long it takes for the measured level to halve. A low value points to fast loss.
